Source: patent publication US9290476B2, “Methylene linked quinolinyl modulators of RORγt” (Janssen Pharmaceutica NV, priority 2012, dated 2016)
Counter-ions that a name gives are not always drawn.

Key:
[1] = target: human RORγt ligand binding domain (RORγt LBD) (Homo sapiens (Human), UniProt P51449); assay: RORγt ThermoFluor assay (thermal shift binding affinity); details: estimated from thermal shift
Protocol: This approach is applicable to a wide variety of systems, and rigorous in theoretical interpretation through quantitation of equilibrium binding constants (KD).
The shift in the melting point described as a ΔTm is proportional to the concentration and affinity of the ligand.
RORγt ThermoFluor® Assay Construct
Protein and compound solutions are dispensed into black 384-well polypropylene PCR microplates (Abgene) and overlayed with silicone oil (1 μL, Fluka, type DC 200) to prevent evaporation.
Bar-coded assay plates are robotically loaded onto a thermostatically controlled PCR-type thermal block and then heated at a typical ramp-rate of 1° C./min for all experiments. Fluorescence was measured by continuous illumination with UV light (Hamamatsu LC6) supplied via fiber optic and filtered through a band-pass filter (380-400 nm; >6 OD cutoff). Fluorescence emission of the entire 384-well plate was detected by measuring light intensity using a CCD camera (Sensys, Roper Scientific) filtered to detect 500±25 nm, resulting in simultaneous and independent readings of all 384 wells. Images were collected at each temperature, and the sum of the pixel intensity in a given area of the assay plate was recorded versus temperature. Reference wells contained RORγt without compounds, and the assay conditions were as follows: • 0.065 mg/mL RORγt • 60 μM 1,8-ANS • 100 mM Hepes, pH 7.0 • 10 mM NaCl • 2.5 mM GSH • 0.002% Tween-20
Project compounds were arranged in a pre-dosed mother plate (Greiner Bio-one) wherein compounds are serially diluted in 100% DMSO by 1:2 from a high concentration of 10 mM over 12 columns within a series (column 12 is a reference well containing DMSO, no compound). The compounds were robotically dispensed directly into assay plates (1×=46 nL) using a Hummingbird capillary liquid handling instrument (Digilab). Following compound dispense, protein and dye in buffer was added to achieve the final assay volume of 3 μL, followed by 1 μL of silicone oil.

human RORγt LBD = human RORγt LBD (Homo sapiens (Human), UniProt P51449); assay: RORγt reporter assay (GAL4-RORγt LBD luciferase in HEK293T cells); type: cell-based; details: for IC50 / RORγt reporter Assay, % inhibition @ 6 μM: HEK293T cells; for IC50: 24 hours compound treatment; for inhibition at 6 µM: HEK-293T, read-out: RORγt reporter Assay, % inhibition @ 6 μM, HEK293T cells, 6 μM
From the text: A reporter assay was used to test functional activity of RORγt modulatory compounds on transcriptional activation driven by the RORγt LBD. Cells used in the assay were co-transfected with two constructs. The first construct, pBIND-RORγt LBD, contained the wild type human RORγt LBD fused to the DNA binding domain of the GAL4 protein. The second construct, pGL4.31 (Promega Cat no. C935A), contained multiple GAL4 responsive DNA elements upstream of firefly luciferase. […] The mutant construct was called pBIND-RORγt-AF2.
The pBIND vector contains the GAL4 DNA Binding Domain (GAL4 DBD) and the renilla luciferase gene under control of the SV40 promoter. Renilla luciferase expression serves as a control for transfection efficiency and cell viability.
The reporter assay was performed by transiently transfecting HEK293T cells with 5 ng of pBIND-RORγt LBD or pBIND-RORγt LBD-AF2 and 5 μg pGL4.31 (Promega Cat no. C935A) using Fugene 6 ([…] Cat no. E2691) at a 1:6 ratio of DNA: Fugene 6 in a T-75 flask in which cells were at least 80% confluent. Twenty four hours after bulk transfection, cells were plated into 96-well plates at 50,000 cells/well in phenol-red free DMEM containing 5% Lipid Reduced FCS and Pen/Strep. Six hours after plating, cells were treated with compounds for 24 hours. Media was removed and cells were lysed with 50 μL 1× Glo Lysis Buffer (Promega). Dual Glo Luciferase Reagent (50 μL/well) was then added and firefly luciferase luminescence was read on an Envision after a ten minute incubation. Finally, Stop and Glo reagent (50 μL/well) was added and renilla luciferase luminescence was read on an Envision after a ten minute incubation. To calculate the effect of compounds on RORγt activity, the ratio of firefly to renilla luciferase was determined and plotted against compound concentration. Agonist compounds increase RORγt-driven luciferase expression, and antagonist or inverse agonist compounds decrease luciferase expression.

Chain of human RORγt ligand binding domain (RORγt LBD) (P51449 other isoform, or with tags, fused parts or gaps): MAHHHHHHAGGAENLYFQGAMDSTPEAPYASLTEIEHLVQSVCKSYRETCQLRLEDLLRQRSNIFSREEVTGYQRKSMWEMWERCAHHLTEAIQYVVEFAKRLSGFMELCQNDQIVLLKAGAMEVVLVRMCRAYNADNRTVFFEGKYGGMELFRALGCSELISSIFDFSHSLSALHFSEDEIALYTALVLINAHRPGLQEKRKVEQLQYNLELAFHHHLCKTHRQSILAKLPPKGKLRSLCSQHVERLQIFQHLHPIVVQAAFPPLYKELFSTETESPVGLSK
Chain of human RORγt LBD (P51449 258-518): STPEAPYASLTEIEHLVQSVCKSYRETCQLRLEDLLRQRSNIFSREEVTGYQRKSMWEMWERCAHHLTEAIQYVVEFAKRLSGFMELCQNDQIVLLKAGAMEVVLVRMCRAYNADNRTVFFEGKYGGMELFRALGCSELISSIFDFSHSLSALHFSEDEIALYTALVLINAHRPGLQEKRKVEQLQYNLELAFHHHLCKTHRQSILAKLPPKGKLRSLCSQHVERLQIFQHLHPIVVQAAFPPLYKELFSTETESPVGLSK

| Compound | Kd [1] | IC50 (human RORγt LBD) | inhibition at 6 µM (human RORγt LBD) | RORγt reporter Assay, % inhibition @ 6 μM (human RORγt LBD) |
| --- | --- | --- | --- | --- |
| CNC(=O)c1nc2ccc(C(O)(c3ccc(F)cc3)c3cncn3C)cc2c(C(F)(F)F)c1Cc1ccccc1 (stereo not drawn) [Example 51, 3-Benzyl-6-((4-fluorophenyl)(hydroxy)(1-methyl-1H-imidazol-5-yl)methyl)-N-methyl-4-(trifluoromethyl)quinoline-2-carboxamide] | 1.1 µM | 1.9 µM | 98% | – |
| Cn1cncc1C(O)(c1ccc(Cl)cc1)c1ccc2nc(O)c(Cc3ccc(-n4cccn4)cc3)c(Cl)c2c1 (single isomer, unassigned) [Example 55C, 3-(4-(1H-pyrazol-1-yl)benzyl)-4-chloro-6-((4-chlorophenyl)(hydroxy)(1-methyl-1H-imidazol-5-yl)methyl)quinolin-2-ol] | 3.5 µM | 3.2 µM | – | 92% |
| COc1nc2ccc(C(O)(c3ccc(F)cc3)c3cncn3C)cc2c(Cl)c1Cc1ccc(S(C)(=O)=O)cc1 (single isomer, unassigned) [Example 54B, (4-chloro-2-methoxy-3-(4-(methylsulfonyl)benzyl)quinolin-6-yl)(4-fluorophenyl)(1-methyl-1H-imidazol-5-yl)methanol] | 0.84 µM | 2 µM | 86% | – |
| Cn1cncc1C(O)(c1ccc(C(F)(F)F)nc1)c1ccc2nc(C#N)c(Cc3ccc(-n4cccn4)cc3)cc2c1 (single isomer, unassigned) [Example 70C, 3-(4-(1H-Pyrazol-1-yl)benzyl)-6-(hydroxy(1-methyl-1H-imidazol-5-yl)(6-(trifluoromethyl)pyridin-3-yl)methyl)quinoline-2-carbonitrile] | 16 µM | 1.6 µM | – | 85% |
| COc1nc2ccc(C(O)(c3ccccc3)C3CCN(C(C)=O)CC3)cc2c(Cl)c1Cc1ccc(-n2cccn2)cc1 (racemic) [Example 83A, 1-(4-((3-(4-(1H-Pyrazol-1-yl)benzyl)-4-chloro-2-methoxyquinolin-6-yl)(hydroxy)(phenyl)methyl)piperidin-1-yl)ethanone] | 0.012 µM | 0.039 µM | 104% | – |
| COc1nc2c(F)cc(C(O)(c3ccc(C(F)(F)F)nc3)c3cncn3C)cc2c(Cl)c1Cc1ccc(-n2cccn2)cc1 (single isomer, unassigned) [Example 58C, (3-(4-(1H-pyrazol-1-yl)benzyl)-4-chloro-8-fluoro-2-methoxyquinolin-6-yl)(1-methyl-1H-imidazol-5-yl)(6-(trifluoromethyl)pyridin-3-yl)methanol] | 0.27 µM | 0.66 µM | – | 109% |
| CCN(CC)c1nc2ccc(C(O)(c3ccc(C(F)(F)F)nc3)c3cncn3C)cc2c(C#N)c1Cc1ccc(-n2cccn2)cc1 (single isomer, unassigned) [Example 74C, 3-(4-(1H-Pyrazol-1-yl)benzyl)-2-(diethylamino)-6-(hydroxy(1-methyl-1H-imidazol-5-yl)(6-(trifluoromethyl)pyridin-3-yl)methyl)quinoline-4-carbonitrile] | 21 µM | 0.93 µM | – | 90% |
| COc1nc2c(OC)cc(C(O)(c3ccc(C(F)(F)F)nc3)c3cncn3C)cc2c(Cl)c1Cc1ccc(-n2cccn2)cc1 (single isomer, unassigned) [Example 59C, (3-(4-(1H-pyrazol-1-yl)benzyl)-4-chloro-2,8-dimethoxyquinolin-6-yl)(1-methyl-1H-imidazol-5-yl)(6-(trifluoromethyl)pyridin-3-yl)methanol] | 0.22 µM | 0.57 µM | – | 108% |
| Cn1cncc1C(O)(c1ccc(Cl)cc1)c1ccc2nc(O)c(Cc3ccc(-n4cccn4)cc3)c(Cl)c2c1 (stereo not drawn) [Example 55A, 3-(4-(1H-Pyrazol-1-yl)benzyl)-4-chloro-6-((4-chlorophenyl)(hydroxy)(1-methyl-1H-imidazol-5-yl)methyl)quinolin-2-ol] | 7.6 µM | 1.7 µM | 94% | – |

Results, then the molecule that gave them:

| Kd [1] | IC50 (human RORγt LBD) | inhibition at 6 µM (human RORγt LBD) | RORγt reporter Assay, % inhibition @ 6 μM (human RORγt LBD) | Compound |
| --- | --- | --- | --- | --- |
| 0.022 µM | 0.052 µM | 89% | – | OC(c1ccc(F)cc1)(c1cccnc1)c1ccc2nc(Cl)c(Cc3ccc(-n4cccn4)cc3)c(Cl)c2c1 (stereo not drawn) [Example 46, (3-(4-(1H-Pyrazol-1-yl)benzyl)-2,4-dichloroquinolin-6-yl)(4-fluorophenyl)(pyridin-3-yl)methanol] |
| 0.0077 µM | ~6 µM | 46% | – | OC(c1cccnc1)(c1cccc(Cl)c1)c1ccc2nc(Cl)c(Cc3cccc(Cl)c3)c(Cl)c2c1 (stereo not drawn) [Example 4, (3-Chlorophenyl)-(2,4-dichloro-3-(3-chlorobenzyl)quinolin-6-yl)-(pyridin-3-yl)methanol.TFA] |
| 0.0048 µM | 0.091 µM | 96% | – | COc1nc2c(C)cc(C(O)(c3ccc(C(F)(F)F)nc3)c3cncn3C)cc2c(Cl)c1Cc1ccc(-n2cccn2)cc1 (stereo not drawn) [Example 29A, (3-(4-(1H-Pyrazol-1-yl)benzyl)-4-chloro-2-methoxy-8-methylquinolin-6-yl)(1-methyl-1H-imidazol-5-yl)(6-(trifluoromethyl)pyridin-3-yl)methanol] |
| 0.015 µM | ~2 µM | 96% | – | COc1ccc(Cc2c(Cl)nc3ccc(C(O)(c4cccnc4)c4cccc(Cl)c4)cc3c2Cl)cc1 (stereo not drawn) [Example 6, (3-Chlorophenyl)-(2,4-dichloro-3-(4-methoxybenzyl)quinolin-6-yl)-(pyridin-3-yl)methanol.TFA] |
| 0.04 µM | > 6 µM | 32% | – | COc1nc2ccc(C(O)(c3cccnc3)c3cccc(Cl)c3)cc2c(Cl)c1Cc1ccc(F)cc1 (stereo not drawn) [Example 7, (4-Chloro-3-(4-fluorobenzyl)-2-methoxyquinolin-6-yl)(3-chlorophenyl)(pyridin-3-yl)methanol] |
| 0.018 µM | 0.044 µM | 115% | – | CON(C)c1nc2ccc(C(O)(c3ccc(C(F)(F)F)nc3)c3cncn3C)cc2c(Cl)c1Cc1ccc(-n2cccn2)cc1 (stereo not drawn) [Example 67A, (3-(4-(1H-Pyrazol-1-yl)benzyl)-4-chloro-2-(methoxy(methyl)amino)quinolin-6-yl)(1-methyl-1H-imidazol-5-yl)(6-(trifluoromethyl)pyridin-3-yl)methanol TFA?] |
| 0.00044 µM | 0.011 µM | 98% | – | CCc1nc2ccc(C(O)(c3cnnn3C)C3CN(C(C)=O)C3)cc2c(Cl)c1Cc1ccc(C(F)(F)F)cc1 (stereo not drawn) [Example 90A, 1-(3-((4-Chloro-2-ethyl-3-(4-(trifluoromethyl)benzyl)quinolin-6-yl)(hydroxy)(1-methyl-1H-1,2,3-triazol-5-yl)methyl)azetidin-1-yl)ethanone] |
| 0.05 µM | 0.17 µM | 103% | – | COc1nc2ccc(C(O)(c3ccc(Cl)cc3)c3cncn3C)cc2c(C#N)c1Cc1ccc(-n2cccn2)cc1 (stereo not drawn) [Example 69, 3-(4-(1H-Pyrazol-1-yl)benzyl)-6-((4-chlorophenyl)(hydroxy)(1-methyl-1H-imidazol-5-yl)methyl)-2-methoxyquinoline-4-carbonitrile] |
| 0.031 µM | ~1 µM | 70% | – | COc1ccc(Cc2c(OC)nc3ccc(C(O)(c4ccc(Cl)cc4)c4cncn4C)cc3c2Cl)cc1 (stereo not drawn) [Example 13, (4-Chloro-2-methoxy-3-(4-methoxybenzyl)quinolin-6-yl)(4-chlorophenyl)(1-methyl-1H-imidazol-5-yl)methanol.TFA] |
